Assay results as given in PubChem BioAssay (NCI).
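48-hour exposure; five concentrations; linearly interpolated endpoints. Here, GI50 denotes the concentration required for 50% inhibition of growth. TGI: total growth inhibition.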

Tests used:
Experiment in all cases: DTP human tumour cell line panel, 48 h
CCRF-CEM leukemia = test system: CCRF-CEM leukemia
786-0 renal = test system: 786-0 renal
SNB-19 CNS = test system: SNB-19 CNS
UACC-257 melanoma = test system: UACC-257 melanoma
HCC-2998 colon = test system: HCC-2998 colon
MDA-MB-231 breast = test system: MDA-MB-231 breast
NCI/ADR-RES ovarian = test system: NCI/ADR-RES ovarian
IGROV1 ovarian = test system: IGROV1 ovarian
MCF7 breast = test system: MCF7 breast
OVCAR-8 ovarian = test system: OVCAR-8 ovarian

| Compound | GI50 (CCRF-CEM leukemia) | TGI (CCRF-CEM leukemia) | GI50 (786-0 renal) | TGI (786-0 renal) | GI50 (SNB-19 CNS) | TGI (SNB-19 CNS) | GI50 (UACC-257 melanoma) | TGI (UACC-257 melanoma) | GI50 (HCC-2998 colon) | TGI (HCC-2998 colon) | GI50 (MDA-MB-231 breast) | TGI (MDA-MB-231 breast) | GI50 (NCI/ADR-RES ovarian) | TGI (NCI/ADR-RES ovarian) | GI50 (IGROV1 ovarian) | TGI (IGROV1 ovarian) | GI50 (MCF7 breast) | TGI (MCF7 breast) | GI50 (OVCAR-8 ovarian) | TGI (OVCAR-8 ovarian) |
| --- | --- | --- | --- | --- | --- | --- | --- | --- | --- | --- | --- | --- | --- | --- | --- | --- | --- | --- | --- | --- |
| CC(O)c1cc(C(=O)N[C@@H](C)Cn2ccc(-c3ccc(C#N)c(Cl)c3)n2)n[nH]1 (stereo not given in full) | 16.8 µM | 39.9 µM | > 100 µM | > 100 µM | > 100 µM | > 100 µM | 27.5 µM | > 100 µM | > 100 µM | > 100 µM | 53.3 µM | > 100 µM | > 100 µM | > 100 µM | 78.8 µM | > 100 µM | 30.7 µM | > 100 µM | 28.7 µM | > 100 µM |
| N#CC1C=Cc2c(ccc3ccccc23)N1C(=O)c1ccccc1 (stereo not given) | 0.149 µM | > 69.9 µM | 0.909 µM | > 100 µM | 0.524 µM | > 100 µM | 14.7 µM | > 100 µM | 0.43 µM | > 47.6 µM | 0.763 µM | > 100 µM | 0.187 µM | – | 0.105 µM | 3.23 µM | 0.0413 µM | > 100 µM | 0.461 µM | > 100 µM |
| COc1c(B(O)O)cc(F)cc1-c1nc2ccc3[nH]ncc3c2c2c1CCCC2 | 0.53 µM | > 38.6 µM | 0.279 µM | 5.84 µM | 1.73 µM | 13 µM | 3.65 µM | 12.5 µM | 2.08 µM | 5.61 µM | < 0.01 µM | 15 µM | 2.03 µM | 13.7 µM | 1.49 µM | 11.2 µM | 1.53 µM | 6.57 µM | 1.55 µM | 17.7 µM |
| COc1cccc2c1n([O-])c1cccc(OC)c1[n+]2=O | 3.49 µM | 35.7 µM | 8.78 µM | 28.8 µM | – | – | 9.69 µM | 28.7 µM | 2.36 µM | 11.6 µM | 20.9 µM | > 100 µM | 3.81 µM | 22.7 µM | 4.8 µM | 66.1 µM | 3.15 µM | 25.6 µM | 4.51 µM | 35.8 µM |
| CCCCCn1c(C)cc(/C=C\c2ccc3cc(C)ccc3[n+]2C)c1C | 0.0354 µM | 0.601 µM | 0.219 µM | 1.17 µM | 0.123 µM | 1.51 µM | 0.367 µM | 1.45 µM | 0.143 µM | 1.51 µM | 0.329 µM | 1.71 µM | 2.11 µM | > 34.4 µM | 0.0386 µM | 1.11 µM | 0.199 µM | 1.04 µM | – | – |
